Measurements from patent US20140113904A1, “TREATMENT OF CANCER WITH TOR KINASE INHIBITORS” (SIGNAL PHARMACEUTICALS, LLC, priority 2012, published 2014).

How the values were obtained:
[1] = Body weight in Compound 1 PC3 xenograft efficacy studies; format: in vivo, SCID mice
Protocol: The BID dose groups were dosed with a 10-hour separation between the morning and evening doses. […] At the end of each study, plasma and/or tumor samples were collected.
Initial body weights were recorded prior to the initiation of treatment using a digital scale. The percent body weight change during the course of the study was calculated using initial body weight measurements. Body weights of each animal were measured twice a week at the same time that tumor measurements were taken. Body weights were measured more frequently if significant decreases were noted during the course of the study.

[2] = tested on: 4E-BP1(T46); assay: Phospho-4E-BP1(T46) in PC3 cell lysates, Luminex multiplex; format: cell-based, human; settings: PC3, 1 hour exposure; read-out: p-4E-BP1(T46) IC50
Text: The direct substrate for TORC1 was 4E-BP 1(T46) and indirect downstream substrate was S6RP(S235/S236). The direct substrate for TORC2 was Akt(S473) and indirect downstream substrates measured were GSK3β(S9) and PRAS40(T246). Additionally, the phosphorylation status of Akt(T308), a phosphorylation site for PDK1 was monitored.
The multiplex Luminex assay format differs from conventional enzyme-linked immunosorbent assay (ELISA) in that the multiplex capture antibody is attached to a polystyrene bead whereas the ELISA capture antibody is attached to the microplate well. The use of the suspension bead-based technology enables the multiplexing capabilities of the Luminex assays. The xMAP® technology uses 5.6 micron polystyrene microspheres, which are internally dyed with red and infrared fluorophores of differing intensities. Each bead is given a unique number, or bead region, allowing differentiation of one bead from another. Beads covalently bound to different specific antibodies can be mixed in the same assay, utilizing a 96-well microplate format. At the completion of the sandwich immunoassay, beads can be read, using the Luminex 100™ or Luminex 200 detection system, in single-file by dual lasers for classification and quantification of each analyte. […]

[3] = tested on: GSK3β (S9); assay: Phospho-GSK3Beta (S9) in PC-3 cell lysates, MSD (Compound 2); format: cell-based; settings: Homo sapiens; PC-3, 1 hour; read-out: mTORC2 GSK3β (S9) IC50
Protocol: The direct substrate for mTORC1 was 4E-BP1(T46) and the indirect downstream substrate was S6RP (S235/S236). The direct substrate for mTORC2 was AKT (S473) and the indirect downstream substrates measured were GSK3β(S9) and PRAS40 (T246). Additionally, the phosphorylation status of AKT (T308), a phosphorylation site for PDK1, was monitored. Concentration-response curves were plotted and IC50 values determined. Cells were plated in 96-well flat bottom plates at the required density (PC-3 cells/well) and the cells were allowed to equilibrate at 37° C., 5% CO2 overnight. […] After the incubation period, the culture media was removed carefully with an aspirator. The plate was placed on ice and 50 μL of 1× Tris Lysis Buffer was added to each well. The plate was placed on a shaker at 4° C. for 1 hour to lyse the cells. At that point, the plate was either frozen at -80° C. for later analysis or immediately assayed for phosphoproteins as described below. To monitor interassay variability, a reference standard was included in the assay for PC-3 cells and the coefficient of variation for assay of […]) was 9.3% (n=50) and for assay of p-AKT (S473) was 28.6% (n=50). The assay plate was incubated with 150 μL of MSD Blocking Buffer for 1 hour with shaking at room temperature. […] Then 150 μL of 1×MSD Read Buffer T was added to each well. The plate was read on the SECTOR Imager plate reader.

Row | Compound | change in body weight ([1]; 10 mg/kg QD, 3 weeks, data not shown) | loss of initial body mass ([1]; 25 mg/kg QD, end of the first cycle) | body weight loss ([1]; 25 mg/kg QD, intermittent dosing study period) | body weight change ([1]; 25 mg/kg QD, second dosing cycle) | loss of initial body weight ([1]; regression study, 25 mg/kg QD, by Day 26, euthanized) | IC50 [2] [nM] | IC50 [3] [nM]
1 | CO[C@H]1CC[C@H](N2C(=O)CNc3ncc(-c4ccc(C(C)(C)O)nc4)nc32)CC1 [Compound 1, 7-(6-(2-hydroxypropan-2-yl)pyridin-3-yl)-1-((1r,4r)-4-methoxycyclohexyl)-3,4-dihydropyrazino-[2,3-b]pyrazin-2(1H)-one] | No significant change | approximately 10% | about 10% | about 5% | over 19% | 410 | 
2 | CCN1C(=O)CNc2ncc(-c3ccc(-c4nc[nH]n4)nc3C)nc21 [Compound 2, 1-ethyl-7-(2-methyl-6-(1H-1,2,4-triazol-3-yl)pyridin-3-yl)-3,4-dihydropyrazino[2,3-b]pyrazin-2(1H)-one] |  |  |  |  |  |  | 17
